Data published in ChEMBL document CHEMBL1201862, “PubChem BioAssay data set” (2004).
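Briefly, cells in 96-well plates were exposed to five compound concentrations for 48 h, and endpoints were estimated by linear interpolation. GI50 is the concentration that inhibits growth by half.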 Active and inactive are the calls of the source. Cut-off read from the data, not from the text of the source: active = GI50 up to about 1.1 µM and inactive = higher.

What was measured:
Experiment in all cases: NCI tumour cell line growth inhibition, 48 h
[1] = test system: MOLT-4
[2] = test system: A498
[3] = test system: NCI-H23
[4] = test system: U-251
[5] = test system: OVCAR-3
[6] = test system: SK-MEL-2
[7] = test system: EKVX
[8] = test system: UO-31
[9] = test system: HCT-15
[10] = test system: SF-539
[11] = test system: DU-145
[12] = test system: A549
[13] = test system: MDA-MB-435
[14] = test system: LOX IMVI
[15] = test system: OVCAR-5
[16] = test system: HOP-92
[17] = test system: SF-295
[18] = test system: OVCAR-8
[19] = test system: NCI/ADR-RES
[20] = test system: PC-3
[21] = test system: ACHN
[22] = test system: KM12
[23] = test system: MDA-MB-231
[24] = test system: TK-10
[25] = test system: HOP-62
[26] = test system: HT-29
[27] = test system: RXF 393
[28] = test system: SW-620
[29] = test system: CCRF-CEM
[30] = test system: K562
[31] = test system: UACC-257
[32] = test system: MDA-N
[33] = test system: HL-60
[34] = test system: IGROV-1
[35] = test system: SNB-75
[36] = test system: SK-MEL-5
[37] = test system: BT-549
[38] = test system: SF-268
[39] = test system: Malme-3M
[40] = test system: SN12C
[41] = test system: SNB-19
[42] = test system: Hs-578T
[43] = test system: HCC 2998
[44] = test system: CAKI-1
[45] = test system: NCI-H460
[46] = test system: RPMI-8226
[47] = test system: MCF7
[48] = test system: 786-0
[49] = test system: M14
[50] = test system: COLO 205
[51] = test system: SK-OV-3
[52] = test system: NCI-H522
[53] = test system: SR
[54] = test system: SK-MEL-28
[55] = test system: UACC-62
[56] = test system: HCT-116
[57] = test system: NCI-H226
[58] = test system: OVCAR-4

O=[N+]([O-])c1ccc2sc(/C=N/c3ccc(O)cc3)cc2c1
GI50 [1]: 15.8 µM (inactive) | GI50 [2]: 72.8 µM (inactive) | GI50 [3]: 27.9 µM (inactive) | GI50 [4]: 19.8 µM (inactive) | GI50 [5]: 15.2 µM (inactive) | GI50 [6]: 22 µM (inactive) | GI50 [7]: 48.1 µM (inactive) | GI50 [8]: 41 µM (inactive) | GI50 [9]: 32.4 µM | GI50 [10]: 22 µM (inactive) | GI50 [11]: 32.8 µM (inactive) | GI50 [12]: 48 µM (inactive) | GI50 [13]: 18.2 µM (inactive) | GI50 [14]: 23.3 µM (inactive) | GI50 [15]: 62.2 µM (inactive) | GI50 [16]: 32.4 µM (inactive) | GI50 [17]: 42.3 µM (inactive) | GI50 [18]: 32.2 µM (inactive) | GI50 [19]: 28.8 µM (inactive) | GI50 [20]: 29.6 µM (inactive) | GI50 [21]: 32.2 µM (inactive) | GI50 [22]: 33.7 µM (inactive) | GI50 [23]: 17.8 µM (inactive) | GI50 [24]: 63.7 µM (inactive) | GI50 [25]: 34.7 µM (inactive) | GI50 [26]: 46.9 µM (inactive) | GI50 [27]: 21.5 µM (inactive) | GI50 [28]: 17 µM (inactive) | GI50 [29]: 15.3 µM (inactive) | GI50 [30]: 18.1 µM (inactive) | GI50 [31]: 23 µM (inactive) | GI50 [32]: 27.3 µM (inactive) | GI50 [33]: 18.9 µM (inactive) | GI50 [34]: 31.4 µM (inactive) | GI50 [35]: 25.8 µM (inactive) | GI50 [36]: 21.8 µM (inactive) | GI50 [37]: 22.3 µM (inactive) | GI50 [38]: 29.5 µM (inactive) | GI50 [39]: 28.3 µM (inactive) | GI50 [40]: 30.1 µM (inactive) | GI50 [41]: 34 µM (inactive) | GI50 [42]: 18.9 µM (inactive) | GI50 [43]: 21.8 µM (inactive) | GI50 [44]: 20.6 µM (inactive) | GI50 [45]: 46 µM (inactive) | GI50 [46]: 22.3 µM (inactive) | GI50 [47]: 20.1 µM (inactive) | GI50 [48]: 19 µM (inactive) | GI50 [49]: 31.3 µM (inactive) | GI50 [50]: 38 µM (inactive) | GI50 [51]: 84.7 µM (inactive) | GI50 [52]: 27.7 µM (inactive) | GI50 [53]: 29.1 µM (inactive) | GI50 [54]: 36.1 µM (inactive) | GI50 [55]: 23.1 µM (inactive) | GI50 [56]: 27.9 µM (inactive)

Cc1ccc(S(=O)(=O)CC2(Br)CCc3ccccc3C2=O)cc1 (stereo unspecified)
GI50 [1]: 2.86 µM (inactive) | GI50 [2]: 25.8 µM (inactive) | GI50 [3]: 33.6 µM (inactive) | GI50 [4]: 21.4 µM (inactive) | GI50 [5]: 45.3 µM (inactive) | GI50 [6]: 21.4 µM (inactive) | GI50 [7]: 43.1 µM (inactive) | GI50 [8]: 14.8 µM (inactive) | GI50 [9]: 19.8 µM | GI50 [10]: 33.7 µM (inactive) | GI50 [11]: 74.8 µM (inactive) | GI50 [12]: 45.3 µM (inactive) | GI50 [13]: 16.5 µM (inactive) | GI50 [14]: 32 µM (inactive) | GI50 [15]: 51.1 µM (inactive) | GI50 [16]: 34.4 µM (inactive) | GI50 [17]: 77.8 µM (inactive) | GI50 [18]: 27.4 µM (inactive) | GI50 [19]: 48.9 µM (inactive) | GI50 [20]: 42.4 µM (inactive) | GI50 [57]: 41.8 µM (inactive) | GI50 [21]: 19.8 µM (inactive) | GI50 [22]: 41 µM (inactive) | GI50 [23]: 28 µM (inactive) | GI50 [24]: 33 µM (inactive) | GI50 [25]: 39.4 µM (inactive) | GI50 [26]: 20.8 µM (inactive) | GI50 [27]: 18.1 µM (inactive) | GI50 [28]: 18 µM (inactive) | GI50 [30]: 5.89 µM (inactive) | GI50 [31]: 22.3 µM (inactive) | GI50 [33]: 17.3 µM (inactive) | GI50 [58]: 27.7 µM (inactive) | GI50 [34]: 17.5 µM (inactive) | GI50 [35]: 29.9 µM (inactive) | GI50 [36]: 17.6 µM (inactive) | GI50 [37]: 18.3 µM (inactive) | GI50 [38]: 16.6 µM (inactive) | GI50 [39]: 33.5 µM (inactive) | GI50 [40]: 30.6 µM (inactive) | GI50 [41]: 41.9 µM (inactive) | GI50 [42]: 32.6 µM (inactive) | GI50 [44]: 24.5 µM (inactive) | GI50 [45]: > 100 µM (inactive) | GI50 [46]: 38.1 µM (inactive) | GI50 [47]: 24.5 µM (inactive) | GI50 [48]: 42.9 µM (inactive) | GI50 [49]: 45.4 µM (inactive) | GI50 [50]: 18.1 µM (inactive) | GI50 [51]: 39.7 µM (inactive) | GI50 [52]: 15.6 µM (inactive) | GI50 [53]: 1.38 µM (inactive) | GI50 [54]: 17.2 µM (inactive) | GI50 [55]: 23 µM (inactive) | GI50 [56]: 47.1 µM (inactive)
